Earlier results as cited in patent US8664187B2, “Methods of treatment of endobronchial infections” (Novartis AG, priority 2004, dated 2014).
Where two headings read alike, the source gives them in different places.

What was measured:
[1] = test system: Gram-negative bacteria
[2] = test system: P. aeruginosa; conditions: 600 mg tid aerosolized; 71 CF patients
[3] = test system: P. aeruginosa; conditions: 300 mg inhaled twice daily, P<0.001 vs placebo
[4] = test system: P. aeruginosa isolates; conditions: CF patients, 1993

## NC[C@H]1O[C@H](O[C@H]2[C@H](O)[C@@H](O[C@H]3O[C@H](CO)[C@@H](O)[C@H](N)[C@H]3O)[C@H](N)C[C@@H]2N)[C@H](N)C[C@@H]1O [tobramycin]
[1]
  concentrations effective in inhibiting the growth of many Gram-negative bacteria: < 4 µg/mL
[2]
  spirometry: improved spirometry
  sputum density of P. aeruginosa: significant reduction in sputum density
[3]; 28 days on/28 days off, Week 0 to Week 20
  average decrease in P. aeruginosa density: 0.8 log10
[3]; Week 0 to Week 4
  average decrease in P. aeruginosa density: 1.9 log10
[4]
  MICs of 90% of isolates: ≤ 16 µg/mL
  MICs of 98% of all isolates: ≤ 128 µg/mL
